Experimental data published in ChEMBL document CHEMBL1201862, “PubChem BioAssay data set” (2004).
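1) Cells in 96-well plates. 2) Compound, 48 h, 5 concentrations. 3) Linear interpolation between surrounding doses. 4) Unreached endpoint = highest concentration. GI50: concentration for 50% inhibition of growth.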 Activity calls are given as the source filed them. No stated cut-off is given here; in the data, active = GI50 up to about 1.1 µM and inactive = higher.

Experiments:
Assay in all cases: NCI tumour cell line growth inhibition, 48 h
HCT-15 = test system: HCT-15
TK-10 = test system: TK-10
K562 = test system: K562
RPMI-8226 = test system: RPMI-8226
HOP-62 = test system: HOP-62
OVCAR-4 = test system: OVCAR-4
SK-MEL-28 = test system: SK-MEL-28
SN12C = test system: SN12C
UACC-257 = test system: UACC-257
MOLT-4 = test system: MOLT-4
A549 = test system: A549
OVCAR-5 = test system: OVCAR-5
SK-OV-3 = test system: SK-OV-3
UACC-62 = test system: UACC-62
SF-539 = test system: SF-539
NCI-H23 = test system: NCI-H23
HT-29 = test system: HT-29
UO-31 = test system: UO-31
COLO 205 = test system: COLO 205

SMILES | GI50 (HCT-15) | GI50 (TK-10) | GI50 (K562) | GI50 (RPMI-8226) | GI50 (HOP-62) | GI50 (OVCAR-4) | GI50 (SK-MEL-28) | GI50 (SN12C) | GI50 (UACC-257) | GI50 (MOLT-4) | GI50 (A549) | GI50 (OVCAR-5) | GI50 (SK-OV-3) | GI50 (UACC-62) | GI50 (SF-539) | GI50 (NCI-H23) | GI50 (HT-29) | GI50 (UO-31) | GI50 (COLO 205)
COc1cc(/C=N/c2nncs2)ccc1O | > 100 µM | > 100 µM (inactive) | > 100 µM (inactive) | > 100 µM (inactive) | > 100 µM (inactive) | > 100 µM (inactive) | > 100 µM (inactive) | > 100 µM (inactive) | > 100 µM (inactive) | > 100 µM (inactive) | > 100 µM (inactive) | > 100 µM (inactive) | > 100 µM (inactive) | > 100 µM (inactive) | > 100 µM (inactive) | > 100 µM (inactive) | > 100 µM (inactive) | > 100 µM (inactive) | –
COC(=O)C(CC=O)C(=O)C(=O)Nc1cccc(C(F)(F)F)c1 (configuration not stated) | > 100 µM | > 100 µM (inactive) | > 100 µM (inactive) | > 100 µM (inactive) | > 100 µM (inactive) | > 100 µM (inactive) | > 100 µM (inactive) | > 100 µM (inactive) | > 100 µM (inactive) | > 100 µM (inactive) | > 100 µM (inactive) | > 100 µM (inactive) | > 100 µM (inactive) | > 100 µM (inactive) | > 100 µM (inactive) | > 100 µM (inactive) | > 100 µM (inactive) | > 100 µM (inactive) | –
O=C(O)CCSC(=O)Nc1ccccc1 | > 100 µM | > 100 µM (inactive) | > 100 µM (inactive) | > 100 µM (inactive) | > 100 µM (inactive) | > 100 µM (inactive) | > 100 µM (inactive) | > 100 µM (inactive) | > 100 µM (inactive) | > 100 µM (inactive) | > 100 µM (inactive) | > 100 µM (inactive) | – | 64.4 µM (inactive) | > 100 µM (inactive) | > 100 µM (inactive) | > 100 µM (inactive) | > 100 µM (inactive) | > 100 µM (inactive)
C[n+]1c2ccccc2c(CNc2ccc(S(=O)(=O)N=C(N)N)cc2)c2ccccc21 | 10.2 µM | 29.4 µM (inactive) | 6.78 µM (inactive) | 2.7 µM (inactive) | 4.09 µM (inactive) | 29.1 µM (inactive) | 12.4 µM (inactive) | 3.16 µM (inactive) | 16 µM (inactive) | 0.311 µM (active) | 6.17 µM (inactive) | 43.7 µM (inactive) | 46 µM (inactive) | 10.4 µM (inactive) | 3.24 µM (inactive) | 5.31 µM (inactive) | 20.2 µM (inactive) | 14.4 µM (inactive) | –
O=C(c1cc(O)ccc1O)c1ccccc1C(Cl)(Cl)Cl | > 100 µM | > 100 µM (inactive) | 61.8 µM (inactive) | 47.5 µM (inactive) | > 100 µM (inactive) | 68.5 µM (inactive) | – | > 100 µM (inactive) | 39 µM (inactive) | 33 µM (inactive) | > 100 µM (inactive) | > 100 µM (inactive) | > 100 µM (inactive) | 71.6 µM (inactive) | > 100 µM (inactive) | 58.2 µM (inactive) | > 100 µM (inactive) | 41.9 µM (inactive) | > 100 µM (inactive)
COC(=O)c1c(OC)cccc1C(=O)O | > 100 µM | > 100 µM (inactive) | > 100 µM (inactive) | > 100 µM (inactive) | > 100 µM (inactive) | > 100 µM (inactive) | – | > 100 µM (inactive) | > 100 µM (inactive) | > 100 µM (inactive) | > 100 µM (inactive) | > 100 µM (inactive) | > 100 µM (inactive) | > 100 µM (inactive) | > 100 µM (inactive) | > 100 µM (inactive) | > 100 µM (inactive) | > 100 µM (inactive) | > 100 µM (inactive)
C[C@]12CC[C@H](O)CC1=CC[C@@H]1C2CC[C@]2(C)NC(=O)C(C#N)CC12 (some centres not stated) | 37.8 µM | > 100 µM (inactive) | 6.89 µM (inactive) | > 100 µM (inactive) | > 100 µM (inactive) | > 100 µM (inactive) | 66.8 µM (inactive) | – | > 100 µM (inactive) | > 100 µM (inactive) | > 100 µM (inactive) | > 100 µM (inactive) | > 100 µM (inactive) | 15.7 µM (inactive) | > 100 µM (inactive) | > 100 µM (inactive) | > 100 µM (inactive) | > 100 µM (inactive) | –
OCC(O)C(O)C(O)c1nn(-c2ccc(Cl)cc2)c2nc3cc(Cl)c(Cl)cc3nc12 (configuration not stated) | – | 32.4 µM (inactive) | 50.8 µM (inactive) | > 100 µM (inactive) | 20.1 µM (inactive) | > 100 µM (inactive) | 61.1 µM (inactive) | > 100 µM (inactive) | 86.3 µM (inactive) | 52.5 µM (inactive) | 32.4 µM (inactive) | > 100 µM (inactive) | 23.8 µM (inactive) | 47 µM (inactive) | 42.8 µM (inactive) | 19.2 µM (inactive) | > 100 µM (inactive) | 71.6 µM (inactive) | > 100 µM (inactive)
CCC(=O)N1C(=O)OCC1C(C)C (configuration not stated) | > 100 µM | > 100 µM (inactive) | > 100 µM (inactive) | > 100 µM (inactive) | > 100 µM (inactive) | > 100 µM (inactive) | – | > 100 µM (inactive) | > 100 µM (inactive) | > 100 µM (inactive) | > 100 µM (inactive) | > 100 µM (inactive) | > 100 µM (inactive) | > 100 µM (inactive) | > 100 µM (inactive) | > 100 µM (inactive) | > 100 µM (inactive) | > 100 µM (inactive) | > 100 µM (inactive)
COc1cc2c(cc1O)[C@H](Cc1ccc(Oc3cc(C[C@H]4c5cc(OC)c(OC)cc5CCN4C)ccc3OC)cc1)NCC2 | 7.98 µM | > 10 µM (inactive) | 2.21 µM (inactive) | 12.9 µM (inactive) | > 10 µM (inactive) | 12.7 µM (inactive) | 16.8 µM (inactive) | 14.8 µM (inactive) | 15.8 µM (inactive) | 3.25 µM (inactive) | 17.9 µM (inactive) | 18 µM (inactive) | – | 17.8 µM (inactive) | 10.5 µM (inactive) | 11.9 µM (inactive) | 6.22 µM (inactive) | 8.75 µM (inactive) | 17.9 µM (inactive)
CN1OC2OC(=O)OC2[C@H]1[C@H]1O[C@H](c2ccccc2)OC1(C)c1cc(OC(=O)c2ccccc2)ccc1OC(=O)c1ccccc1 (some centres not stated) | > 50 µM | > 50 µM (inactive) | > 50 µM (inactive) | > 50 µM (inactive) | > 50 µM (inactive) | > 50 µM (inactive) | > 50 µM (inactive) | > 50 µM (inactive) | > 50 µM (inactive) | > 50 µM (inactive) | > 50 µM (inactive) | > 50 µM (inactive) | > 50 µM (inactive) | – | > 50 µM (inactive) | > 50 µM (inactive) | > 50 µM (inactive) | > 50 µM (inactive) | > 50 µM (inactive)
